Test results taken from PubChem BioAssay (NCI).
Values joined by “and” are separate entries in the source; they are usually repeats but may differ in a detail not shown here. Identical values can stand only once.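 Method: 48-hour compound exposure of cells in 96-well plates, five concentrations, linear interpolation of endpoints. Abbreviation: GI50, concentration required for 50% inhibition of growth. At the TGI there is no net growth.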

Key:
Experiment in all cases: NCI anticancer screen, dose series, 48 h
[1] = test system: MCF7 breast
[2] = test system: PC-3 prostate
[3] = test system: HS 578T breast
[4] = test system: CCRF-CEM leukemia
[5] = test system: LOX IMVI melanoma
[6] = test system: OVCAR-4 ovarian
[7] = test system: SN12C renal
[8] = test system: RPMI-8226 leukemia
[9] = test system: EKVX NSCLC
[10] = test system: UO-31 renal

SMILES: O=C(Cc1ccc(/C=C/C(=O)c2ncc[nH]2)cc1)Nc1ccc(F)cc1
- GI50 [1]: 0.995 µM
- TGI [1]: 4.62 µM
- GI50 [2]: 2.8 µM
- TGI [2]: 11.9 µM
- GI50 [3]: 23.3 µM
- TGI [3]: > 33.3 µM
- GI50 [4]: 1.68 µM
- TGI [4]: > 33.3 µM
- GI50 [5]: 1.07 µM
- TGI [5]: 4.72 µM
- GI50 [6]: 9.14 µM
- TGI [6]: > 33.3 µM
- GI50 [7]: 2.93 µM
- TGI [7]: 27.1 µM
- GI50 [8]: 1.27 µM
- TGI [8]: 7.46 µM
- GI50 [9]: 7.46 µM
- TGI [9]: 32.9 µM
- GI50 [10]: 2.64 µM
- TGI [10]: 7.06 µM

SMILES: CC(C)(CN1CCCCC1)C(=O)/C=C/c1ccc(/C=C/C(=O)C(C)(C)CN2CCCCC2)cc1
- TGI [1]: 1.77 µM
- TGI [2]: 0.82 µM
- TGI [3]: 3.2 µM
- TGI [4]: 0.234 µM
- TGI [5]: 0.856 µM
- TGI [6]: 1.47 µM
- TGI [7]: 0.589 µM
- TGI [8]: 0.663 µM
- TGI [9]: 4.21 µM
- TGI [10]: 2.54 µM

SMILES: CC(N)C(Cc1ccc(Cl)cc1)c1ccc(Cl)cc1 (stereo not given)
- GI50 [1]: 2.99 µM
- TGI [1]: 12.5 µM
- GI50 [2]: 12.8 µM
- TGI [2]: 26.3 µM
- GI50 [3]: 13.8 µM
- TGI [3]: 39.7 µM
- GI50 [4]: 20.3 µM
- TGI [4]: 39 µM
- GI50 [5]: 5.56 µM
- TGI [5]: 18.9 µM
- GI50 [6]: 11.4 µM
- TGI [6]: 25.7 µM
- GI50 [7]: 11.4 µM
- TGI [7]: 26.7 µM
- GI50 [8]: 6.48 µM
- TGI [8]: 22.2 µM
- GI50 [9]: 9.22 µM
- TGI [9]: 22.4 µM
- GI50 [10]: 7.12 µM
- TGI [10]: 20.9 µM

SMILES: Cc1cccc(N(C)C(=O)[C@@H]2[C@H](O)CCN2c2nc(C)cc(C(F)(F)F)c2C#N)c1
- GI50 [1]: 26.1 µM
- TGI [1]: > 100 µM
- GI50 [2]: 15.4 µM
- TGI [2]: 67.2 µM
- GI50 [3]: 25.7 µM
- TGI [3]: > 100 µM
- GI50 [4]: 25.8 µM
- TGI [4]: > 100 µM
- GI50 [5]: 3.61 µM
- TGI [5]: 27.3 µM
- GI50 [6]: 18.7 µM
- TGI [6]: > 100 µM
- GI50 [7]: 17.3 µM
- TGI [7]: 50.1 µM
- GI50 [8]: 16.3 µM
- TGI [8]: 41.6 µM
- GI50 [9]: 24.6 µM
- TGI [9]: > 100 µM
- GI50 [10]: 14.8 µM
- TGI [10]: 29.5 µM

SMILES: CCN(CC)c1ccc(/C=N/NC(=O)CSc2nc3ccccc3c(=O)n2CCc2ccc(S(N)(=O)=O)cc2)c(O)c1
- GI50 [1]: 1.64 µM
- TGI [1]: > 100 µM
- GI50 [2]: 1.83 µM
- TGI [2]: > 100 µM
- GI50 [3]: 3.02 µM
- TGI [3]: > 100 µM
- GI50 [4]: 0.326 µM
- TGI [4]: 4.35 µM
- GI50 [5]: 1.09 µM
- TGI [5]: 6.66 µM
- GI50 [6]: 0.549 µM
- TGI [6]: > 100 µM
- GI50 [7]: 1.86 µM
- TGI [7]: > 100 µM
- GI50 [8]: 0.417 µM
- TGI [8]: 2.44 µM
- GI50 [9]: 1.42 µM
- TGI [9]: > 100 µM
- GI50 [10]: 2.86 µM
- TGI [10]: > 100 µM

SMILES: COc1ccc2c(c1)/C(=C\c1c(-c3cc(OC)ccc3OC)nc3sc(C)cn13)C(=O)N2C
- GI50 [1]: 28.3 µM
- TGI [1]: > 100 µM
- GI50 [2]: 16.3 µM
- TGI [2]: 93.8 µM
- GI50 [3]: 48.9 µM
- TGI [3]: > 100 µM
- GI50 [4]: 12.1 µM
- TGI [4]: > 100 µM
- GI50 [5]: 23.9 µM
- TGI [5]: 83.5 µM
- GI50 [6]: 20.9 µM
- TGI [6]: > 100 µM
- GI50 [7]: 24.7 µM
- TGI [7]: > 100 µM
- GI50 [8]: 9.13 µM
- TGI [8]: 58.4 µM
- GI50 [9]: 61.1 µM
- TGI [9]: > 100 µM
- GI50 [10]: 16.8 µM
- TGI [10]: > 100 µM

SMILES: COc1ccc(/C=C/C(=O)c2cc(OC)c(OC)c(OC)c2)cc1OCC(=O)Nc1nc2ccc(OC(F)(F)F)cc2s1
- GI50 [1]: 1.32 µM
- TGI [1]: 7.77 µM
- GI50 [2]: 3.14 µM
- TGI [2]: 7.82 µM
- GI50 [3]: 3.08 µM
- TGI [3]: > 100 µM
- GI50 [4]: 2.5 µM
- TGI [4]: > 100 µM
- GI50 [5]: 0.47 µM
- TGI [5]: 1.95 µM
- GI50 [6]: 2.07 µM
- TGI [6]: 5.14 µM
- GI50 [7]: 1.74 µM
- TGI [7]: 4.67 µM
- GI50 [8]: 2.02 µM
- TGI [8]: > 100 µM
- GI50 [9]: 5.11 µM
- TGI [9]: > 100 µM
- GI50 [10]: 1.61 µM
- TGI [10]: 5.07 µM

SMILES: COc1ccc(C(c2cc(OC)c(OC)c(OC)c2)n2ccnc2)cc1O (stereo not given)
- GI50 [1]: 0.339 µM
- TGI [1]: > 100 µM
- GI50 [2]: 0.384 µM
- TGI [2]: > 100 µM
- GI50 [3]: 0.414 µM
- TGI [3]: > 100 µM
- GI50 [4]: 0.289 µM
- TGI [4]: > 100 µM
- GI50 [5]: 0.525 µM
- TGI [5]: > 100 µM
- GI50 [6]: 3.44 µM
- TGI [6]: > 100 µM
- GI50 [7]: 0.91 µM
- TGI [7]: > 100 µM
- GI50 [8]: 0.385 µM
- TGI [8]: > 100 µM
- GI50 [9]: 0.72 µM
- TGI [9]: > 100 µM
- GI50 [10]: 0.883 µM
- TGI [10]: > 100 µM

SMILES: N#Cc1cc(C#N)c(N)nc1N
- TGI [1]: > 100 µM
- TGI [2]: > 100 µM
- TGI [3]: > 100 µM
- TGI [4]: > 100 µM
- TGI [5]: > 100 µM
- TGI [6]: > 100 µM
- TGI [7]: > 100 µM
- TGI [8]: > 100 µM
- TGI [9]: > 100 µM
- TGI [10]: > 100 µM

SMILES: Cc1nc([P+](c2ccccc2)(c2ccccc2)c2ccccc2)c(Sc2sc(-c3ccccc3)nc2[P+](c2ccccc2)(c2ccccc2)c2ccccc2)o1
- GI50 [1]: 0.669 µM
- TGI [1]: 4.81 µM
- GI50 [2]: 1.04 µM
- TGI [2]: 2.72 µM
- GI50 [3]: 1.22 µM
- TGI [3]: 5.32 µM
- GI50 [4]: 0.959 µM
- TGI [4]: 9.4 µM
- GI50 [5]: 1.82 µM
- TGI [5]: 5.71 µM
- GI50 [6]: 0.952 µM
- TGI [6]: 5.82 µM
- GI50 [7]: 1.72 µM
- TGI [7]: 6.88 µM
- GI50 [8]: 0.27 µM
- TGI [8]: 1.25 µM
- GI50 [9]: 1.1 µM
- TGI [9]: 5.64 µM
- GI50 [10]: 1.81 µM
- TGI [10]: 5.99 µM

SMILES: O=C(Oc1cccc2cccnc12)c1cc2c(cc1Cl)SC(N(c1ccc(F)cc1)S(=O)(=O)c1ccc(Br)s1)=NS2(=O)=O
- GI50 [1]: 21.3 µM
- TGI [1]: 44 µM
- GI50 [2]: 21.5 µM
- TGI [2]: 73.9 µM
- GI50 [3]: 38.9 µM
- TGI [3]: > 100 µM
- GI50 [4]: 30.5 µM
- TGI [4]: > 100 µM
- GI50 [5]: 15.8 µM
- TGI [5]: 64.2 µM
- GI50 [6]: 17.8 µM
- TGI [6]: 46.8 µM
- GI50 [7]: 24.9 µM
- TGI [7]: > 100 µM
- GI50 [8]: 28.6 µM
- TGI [8]: 96.3 µM
- GI50 [9]: 22.5 µM
- TGI [9]: 64.1 µM
- GI50 [10]: 34.2 µM
- TGI [10]: > 100 µM

SMILES: COc1cc(OC)c2c(c1)OC(c1ccccc1)CC2=O (stereo not given)
- TGI [1]: > 10 µM
- TGI [2]: > 10 µM
- TGI [3]: > 10 µM
- TGI [4]: > 10 µM
- TGI [5]: > 10 µM
- TGI [6]: > 10 µM
- TGI [7]: > 10 µM
- TGI [8]: > 10 µM
- TGI [9]: > 10 µM
- TGI [10]: > 10 µM

SMILES: Nc1nccc(-c2c(-c3ccc(F)cc3)ncn2C2CCNCC2)n1
- GI50 [1]: 0.62 µM and 0.827 µM
- TGI [1]: > 17.2 µM
- GI50 [2]: 13.6 µM and 4.05 µM
- TGI [2]: > 25 µM
- GI50 [3]: > 18.3 µM and 5.54 µM
- TGI [3]: > 25 µM
- GI50 [4]: 13.2 µM and 4.52 µM
- TGI [4]: > 25 µM
- GI50 [5]: 2.84 µM and 2.33 µM
- TGI [5]: > 25 µM
- GI50 [6]: 1.86 µM and 2.77 µM
- TGI [6]: > 25 µM and 13.1 µM
- GI50 [7]: 7.71 µM and 2.13 µM
- TGI [7]: > 25 µM
- GI50 [8]: 12.6 µM and 7.07 µM
- TGI [8]: > 25 µM
- GI50 [9]: > 25 µM and 5.01 µM
- TGI [9]: > 25 µM and 24.8 µM
- GI50 [10]: 10.9 µM and 3.04 µM
- TGI [10]: > 25 µM and 17.4 µM
